Experiment: xn = mol fraction of the nth substance listed
Conditions: 101 kPa, Liquid; for speed of sound: Sing-around technique in a fixed-path interferometer; for mass density: Vibrating tube method; for viscosity: Capillary tube (Ostwald / Ubbelohde) method

CCCCOCCO [2-butoxyethan-1-ol] + CCCO
Conditions	mass density [kg/m3]	speed of sound [m/s]	viscosity [mPa·s]
293.15 K, x1 = 0.052	812.72	1233.5	–
293.15 K, x1 = 0.1024	820.5	1241.8	–
293.15 K, x1 = 0.1524	827.69	1249.4	–
293.15 K, x1 = 0.1986	833.97	1255.9	–
293.15 K, x1 = 0.2528	840.79	1263	–
293.15 K, x1 = 0.3032	846.73	1269.1	–
293.15 K, x1 = 0.4064	857.67	1280.4	–
293.15 K, x1 = 0.5015	866.6	1289.5	–
293.15 K, x1 = 0.6031	875.08	1298.1	–
293.15 K, x1 = 0.7006	882.33	1305.4	–
293.15 K, x1 = 0.8022	889.07	1312.2	–
293.15 K, x1 = 0.8553	892.31	1315.4	–
293.15 K, x1 = 0.9066	895.25	1318.3	–
293.15 K, x1 = 0.9516	897.7	1320.8	–
298.15 K, x1 = 0.052	808.78	1216.5	1.991
298.15 K, x1 = 0.1024	816.6	1224.8	2.014
298.15 K, x1 = 0.1524	823.84	1232.3	2.048
298.15 K, x1 = 0.1986	830.06	1238.9	2.079
298.15 K, x1 = 0.2528	836.87	1245.9	2.122
298.15 K, x1 = 0.3032	842.76	1252	2.163
298.15 K, x1 = 0.4064	853.64	1263.3	2.256
298.15 K, x1 = 0.5015	862.56	1272.3	2.351
298.15 K, x1 = 0.6031	871.01	1280.9	2.457
298.15 K, x1 = 0.7006	878.24	1288.3	2.558
298.15 K, x1 = 0.8022	884.94	1295.1	2.666
298.15 K, x1 = 0.8553	888.19	1298.3	2.725
298.15 K, x1 = 0.9066	891.15	1301.3	2.779
298.15 K, x1 = 0.9516	893.62	1303.7	2.83
303.15 K, x1 = 0.052	804.75	1199.4	1.751
303.15 K, x1 = 0.1024	812.56	1207.8	1.776
303.15 K, x1 = 0.1524	819.76	1215.4	1.811
303.15 K, x1 = 0.1986	825.96	1221.9	1.844
303.15 K, x1 = 0.2528	832.81	1229	1.883
303.15 K, x1 = 0.3032	838.66	1235.1	1.925
303.15 K, x1 = 0.4064	849.51	1246.3	2.027
303.15 K, x1 = 0.5015	858.44	1255.4	2.129
303.15 K, x1 = 0.6031	866.86	1264	2.233
303.15 K, x1 = 0.7006	874.08	1271.3	2.338
303.15 K, x1 = 0.8022	880.81	1278	2.443
303.15 K, x1 = 0.8553	884.07	1281.3	2.505
303.15 K, x1 = 0.9066	887.02	1284.2	2.559
303.15 K, x1 = 0.9516	889.53	1286.6	2.615
308.15 K, x1 = 0.052	800.67	1182.4	1.578
308.15 K, x1 = 0.1024	808.47	1190.8	1.597
308.15 K, x1 = 0.1524	815.69	1198.4	1.627
308.15 K, x1 = 0.1986	821.89	1205	1.657
308.15 K, x1 = 0.2528	828.69	1212.1	1.69
308.15 K, x1 = 0.3032	834.55	1218.3	1.726
308.15 K, x1 = 0.4064	845.38	1229.5	1.804
308.15 K, x1 = 0.5015	854.29	1238.6	1.874
308.15 K, x1 = 0.6031	862.71	1247.2	1.953
308.15 K, x1 = 0.7006	869.93	1254.4	2.026
308.15 K, x1 = 0.8022	876.64	1261.1	2.11
308.15 K, x1 = 0.8553	879.9	1264.3	2.156
308.15 K, x1 = 0.9066	882.86	1267.2	2.188
308.15 K, x1 = 0.9516	885.32	1269.7	2.218
313.15 K, x1 = 0.052	796.66	1165.4	–
313.15 K, x1 = 0.1024	804.45	1173.7	–
313.15 K, x1 = 0.1524	811.62	1181.4	–
313.15 K, x1 = 0.1986	817.8	1188	–
313.15 K, x1 = 0.2528	824.54	1195.2	–
313.15 K, x1 = 0.3032	830.4	1201.5	–
313.15 K, x1 = 0.4064	841.23	1212.9	–
313.15 K, x1 = 0.5015	850.1	1222	–
313.15 K, x1 = 0.6031	858.52	1230.6	–
313.15 K, x1 = 0.7006	865.71	1237.8	–
313.15 K, x1 = 0.8022	872.48	1244.4	–
313.15 K, x1 = 0.8553	875.69	1247.6	–
313.15 K, x1 = 0.9066	878.69	1250.5	–
313.15 K, x1 = 0.9516	881.14	1252.9	–

Reference: the NIST ThermoML archive (doi:10.1016/j.fluid.2013.06.021)
